≈ marks a conversion by molar mass, not a printed value.
Experiments:
Hepatitis C virus [1] = experiment: Antiviral activity against HCV genotype 1b Con1 harboring NS3 D168V mutant infected in human HuH7 replicon cells after 3 days by luciferase reporter gene assay; assay type: functional, organism-based, Hepacivirus hominis; settings: isolate Con1, Huh-7, 72 h
Canis familiaris [2] = experiment: Fraction of drug absorbed into portal vein in dog at 3 mg/kg, po by LC-MS/MS analysis; assay type: ADME, organism-based, Canis lupus familiaris; settings: in vivo
Hepatitis C virus [3] = experiment: Antiviral activity against HCV genotype 1a H77 harboring NS3 D168V mutant infected in human HuH7 replicon cells after 3 days by luciferase reporter gene assay; assay type: functional, organism-based, Hepacivirus hominis; settings: genotype 1a H77, Huh-7, 72 h
[4] = Half life in po dosed rat by LC-MS/MS analysis; assay type: ADME, organism-based; settings: in vivo
Hepatitis C virus [5] = experiment: Resistance index, ratio of EC50 for HCV genotype 1a H77 harboring NS3 R155K mutant infected in human HuH7 replicon cells to EC50 for HCV genotype 1a H77 harboring wild type NS3 infected in human HuH7 replicon cells; assay type: functional, Hepacivirus hominis
Hepatitis C virus [6] = experiment: Antiviral activity against HCV genotype 1a H77 infected in human HuH7 replicon cells after 3 days in absence of human plasma by luciferase reporter gene assay; assay type: functional, organism-based, Hepacivirus hominis; settings: genotype 1a H77, Huh-7, 72 h
Canis familiaris [7] = experiment: Dose normalized AUC in dog at 3 mg/kg, po after 24 hrs by LC-MS/MS analysis; assay type: ADME, organism-based, Canis lupus familiaris; settings: in vivo
[8] = Plasma clearance in iv dosed rat by LC-MS/MS analysis; assay type: ADME, organism-based
[9] = Half life in dog at 3 mg/kg, po by LC-MS/MS analysis; assay type: ADME, organism-based, Canis lupus familiaris; settings: in vivo
[10] = Oral bioavailability in dog at 3 mg/kg by LC-MS/MS analysis; assay type: ADME, organism-based, Canis lupus familiaris; settings: in vivo
Hepatitis C virus [11] = experiment: Antiviral activity against HCV genotype 1b Con1 infected in human HuH7 replicon cells after 3 days in presence of 40% human plasma by luciferase reporter gene assay; assay type: functional, organism-based, Hepacivirus hominis; settings: isolate Con1, Huh-7, 72 h
Hepatitis C virus [12] = experiment: Ratio of EC50 in presence of 40% human plasma to EC50 in absence of human plasma for HCV genotype 1a H77 infected in human HuH7 replicon cells; assay type: functional, Hepacivirus hominis
Rattus norvegicus = experiment: Dose normalized AUC in po dosed rat after 24 hrs by LC-MS/MS analysis; assay type: ADME, organism-based; settings: in vivo
[13] = Apparent permeability of the compound by PAMPA; assay type: ADME
[14] = Half life in iv dosed rat by LC-MS/MS analysis; assay type: ADME, organism-based; settings: in vivo
Hepatitis C virus [15] = experiment: Antiviral activity against HCV genotype 1a H77 infected in human HuH7 replicon cells after 3 days in presence of 40% human plasma by luciferase reporter gene assay; assay type: functional, organism-based, Hepacivirus hominis; settings: genotype 1a H77, Huh-7, 72 h
Hepatitis C virus [16] = experiment: Antiviral activity against HCV genotype 3a infected in human HuH7 replicon cells after 3 days in absence of human plasma by luciferase reporter gene assay; assay type: functional, organism-based, Hepacivirus hominis; settings: Huh-7, 72 h
Hepatitis C virus [17] = experiment: Antiviral activity against HCV genotype 1b Con1 infected in human HuH7 replicon cells after 3 days in absence of human plasma by luciferase reporter gene assay; assay type: functional, organism-based, Hepacivirus hominis; settings: isolate Con1, Huh-7, 72 h
[18] = Oral bioavailability in rat by LC-MS/MS analysis; assay type: ADME, organism-based; settings: in vivo
Hepatitis C virus [19] = experiment: Resistance index, ratio of EC50 for HCV genotype 1b Con1 harboring NS3 D168V mutant infected in human HuH7 replicon cells to EC50 for HCV genotype 1b Con1 harboring wild type NS3 infected in human HuH7 replicon cells; assay type: functional, Hepacivirus hominis, isolate Con1
Hepatitis C virus [20] = experiment: Resistance index, ratio of EC50 for HCV genotype 1b Con1 harboring NS3 R155K mutant infected in human HuH7 replicon cells to EC50 for HCV genotype 1b Con1 harboring wild type NS3 infected in human HuH7 replicon cells; assay type: functional, Hepacivirus hominis, isolate Con1
[21] = Solubility in pH 7.2 buffer; assay type: physicochemical
Hepatitis C virus [22] = experiment: Resistance index, ratio of EC50 for HCV genotype 1a H77 harboring NS3 D168V mutant infected in human HuH7 replicon cells to EC50 for HCV genotype 1a H77 harboring wild type NS3 infected in human HuH7 replicon cells; assay type: functional, Hepacivirus hominis
[23] = Plasma clearance in dog at 1 mg/kg, iv by LC-MS/MS analysis; assay type: ADME, organism-based, Canis lupus familiaris
[24] = Half life in dog at 1 mg/kg, iv by LC-MS/MS analysis; assay type: ADME, organism-based, Canis lupus familiaris; settings: in vivo
Hepatitis C virus [25] = experiment: Antiviral activity against HCV genotype 1b Con1 harboring NS3 R155K mutant infected in human HuH7 replicon cells after 3 days by luciferase reporter gene assay; assay type: functional, organism-based, Hepacivirus hominis; settings: isolate Con1, Huh-7, 72 h
RS4-11 = experiment: Antiproliferative activity against human RS4:11 cells in presence of 10% human serum; assay type: functional, cell-based
MOLT-4 = experiment: Antiproliferative activity against human MOLT4 cells in presence of 10% human serum; assay type: functional, cell-based
Hepatitis C virus [26] = experiment: Antiviral activity against HCV genotype 1a H77 harboring NS3 R155K mutant infected in human HuH7 replicon cells after 3 days by luciferase reporter gene assay; assay type: functional, organism-based, Hepacivirus hominis; settings: genotype 1a H77, Huh-7, 72 h

| SMILES | EC50 (Hepatitis C virus [1]) [nM] | FaFg (Canis familiaris [2]) | EC50 (Hepatitis C virus [3]) [nM] | Ratio EC50 (Hepatitis C virus [5]) | EC50 (Hepatitis C virus [6]) [nM] | AUC/dose (Canis familiaris [7]) [µg·h/mL] | clearance [8] [mL/min/kg] | EC50 (Hepatitis C virus [11]) [nM] | Ratio EC50 (Hepatitis C virus [12]) | AUC/dose (Rattus norvegicus) [µg·h/mL] | Papp [13] [×10⁻⁶ cm/s] | half-life [14] [h] | EC50 (Hepatitis C virus [15]) [nM] | EC50 (Hepatitis C virus [17]) [nM] | bioavailability [18] [%] | Ratio EC50 (Hepatitis C virus [19]) | Ratio EC50 (Hepatitis C virus [20]) | Solubility [21] [µM] | Ratio EC50 (Hepatitis C virus [22]) | clearance [23] [mL/min/kg] | further results |
| --- | --- | --- | --- | --- | --- | --- | --- | --- | --- | --- | --- | --- | --- | --- | --- | --- | --- | --- | --- | --- | --- |
| Cc1cc(C(=O)N[C@H]2CCCCC/C=C\[C@@H]3C[C@@]3(C(=O)NS(=O)(=O)C3(C)CC3)NC(=O)[C@@H]3C[C@@H](Oc4nc5ccccc5c5ccc(F)cc45)CN3C2=O)no1 | 0.9 | 1.4 | 8 | 18 | 0.7 | 85 | 41.7 | 8 | 6 - 35 | 0.16 | 0.19 | 3.2 | 6 | 0.5 | 40 | 9 | 4 | 1.9 (≈ 1.5 µg/mL) | 168 | 0.333 | half-life [4]: 3.5 h; half-life [9]: 2 h; bioavailability [10]: 140%; EC50 (Hepatitis C virus [16]): 4 to 7 nM; half-life [24]: 2.3 h; EC50 (Hepatitis C virus [25]): 0.4 nM |
| CN(C)CC[C@H](CSc1ccccc1)Nc1ccc(S(=O)(=O)NC(=O)c2ccc(N3CCN(Cc4ccccc4-c4ccc(Cl)cc4)CC3)cc2)cc1[N+](=O)[O-] [ABT 737] |  |  |  |  |  |  |  |  |  |  |  |  |  |  |  |  |  |  |  |  | EC50 (RS4-11): 24 nM; EC50 (MOLT-4): 622 nM |
| CC(=O)N(C)[C@@H](CC(C)(C)C)C(=O)N[C@H]1CCCCC/C=C\[C@@H]2C[C@@]2(C(=O)NS(=O)(=O)C2(C)CC2)NC(=O)[C@@H]2C[C@@H](Oc3nc4cc(F)ccc4c4ccccc34)CN2C1=O | 3 | 0.8 | 0.4 | 0.8 | 0.5 | 11.6 | 51.7 | 12 | 6 - 35 | 0.09 | 0.28 | 1.7 | 7 | 2 | 27 | 11 | 33 | 2.2 (≈ 1.89 µg/mL) | 2 | 1.17 | half-life [4]: 1.5 h; half-life [9]: 2.1 h; bioavailability [10]: 76%; EC50 (Hepatitis C virus [16]): 4 to 8 nM; half-life [24]: 2.2 h; EC50 (Hepatitis C virus [26]): 0.6 nM; EC50 (Hepatitis C virus [25]): 8 nM |
| Cc1cc(C(=O)N[C@H]2CCCCC/C=C\[C@@H]3C[C@@]3(C(=O)NS(=O)(=O)C3CC3)NC(=O)[C@@H]3C[C@@H](Oc4nc5ccccc5nc4C)CN3C2=O)no1 | 5 | 0.2 | 94 | 6 | 1.4 | 0.3 | 78.3 | 9 | 6 - 35 | 0.008 | 3.5 | 2.4 | 30 | 0.4 | 3.9 | 2 | 2 | > 500 | 177 | 7.83 | bioavailability [10]: 13%; half-life [24]: 1.4 h; EC50 (Hepatitis C virus [26]): 3 nM; EC50 (Hepatitis C virus [25]): 2 nM |
| Cc1cc(C(=O)N[C@H]2CCCCC/C=C\[C@@H]3C[C@@]3(C(=O)NS(=O)(=O)C3(C)CC3)NC(=O)[C@@H]3C[C@@H](Oc4nc5cc(F)ccc5nc4C(F)(F)F)CN3C2=O)no1 | 1.3 | 0.9 | 14 | 3 | 0.7 | 46.8 | 26.7 | 11 | 6 - 35 | 0.19 | 12.1 | 4.1 | 9 | 0.5 | 27 | 4 | 1 | 20.6 (≈ 16.6 µg/mL) | 127 | 0.333 | half-life [4]: 4.7 h; half-life [9]: 2.9 h; EC50 (Hepatitis C virus [16]): 124 nM; half-life [24]: 2.9 h; EC50 (Hepatitis C virus [26]): 0.3 nM; EC50 (Hepatitis C virus [25]): 0.4 nM |

— ChEMBL document CHEMBL4219043, “Beyond the Rule of 5: Lessons Learned from AbbVie's Drugs and Compound Collection” (J Med Chem, 2018)
